What is called IC50 is the concentration needed to halve the response being measured.

This passage reports IC50 results from BindingDB's records for doi:10.1021/ml300405d (Therachem Research Medilab (India), 2013).

The target in this test is Tyrosine-protein kinase SYK (Homo sapiens) (UniProt P43405). Description: Inhibition of human Gst-tagged Syk expressed in sf9 cells.

The compound `CNC(=O)c1ccc(NC(=O)c2cccc(-c3nc(Nc4ccc(OC)c(OC)c4)c4ncsc4n3)c2)cc1` returned an IC50 of 71 nM. Compound `COc1ccc(Nc2nc(N3CCC(C(=O)Nc4ccc(C(=O)O)cc4)C3)nc3scnc23)nc1OC` (stereo not drawn) came in with an IC50 of 6150 nM.

For the compound `COc1ccc(Nc2nc(N3CCCC(C(=O)Nc4ccc(C(=O)O)c(O)c4)C3)nc3scnc23)cc1OC` (stereo not drawn), half-maximal inhibition (IC50) was put at 71 nM.
